This note sets out measurements from paper PMC10952342 (2023).

Experiment [1] deals with c-Myc (DNA, G4) TGAGGGTGGGTAGGGTGGGTAA
The experiment in a line: emission titration (580 nm). As to conditions: K+ 100 mM, lithium cacodylate pH 7.3.

Experiment [2] concerns HTG4 (DNA, G4) TTGGGTTAGGGTTAGGGTTAGGGA
In words: emission titration (580 nm). Conditions: K+ 100 mM, lithium cacodylate pH 7.3.

Experiment [3] deals with HTelo (DNA, G4) AGGGTTAGGGTTAGGGTTAGGG
In words: emission titration (580 nm). Conditions: lithium cacodylate pH 7.3.

In experiment [4] the test system is c-Myc (DNA, G4) TGAGGGTGGGTAGGGTGGGTAA
The experiment in a line: CD melting (265 nm). As to conditions: K+ 1 mM; 10 mM lithium cacodylate; 5 μM DNA, 10 μM compound.

In experiment [5] the test system is HTelo (DNA, G4) AGGGTTAGGGTTAGGGTTAGGG
In words: CD melting (295 nm). Conditions: Na+ 100 mM; 10 mM lithium cacodylate; 5 μM DNA, 10 μM compound.

Each structure is given as a SMILES string.

As for `CN(C)CCOc1c[c-]c(-c2cccc(-c3ccccn3)n2)cc1.OCC[S-].[Pt+2]`, the Ka in experiment [1] is 14.43 ± 7.18 x 10^5 M^-1; in experiment [2], 22.04 ± 9.23 x 10^5 M^-1; in experiment [3] (K+ 100 mM), 12.5 ± 0.30 x 10^5 M^-1; in experiment [3] (Na+ 100 mM) it was 3.5 ± 1.01 x 10^5 M^-1.
As a reminder, the ΔTm is the change in melting temperature against a reference sample. Turning to `CN(C)CCOc1c[c-]c(-c2cccc(-c3ccccn3)n2)cc1.[Cl-].[Pt+2]`, the values for the ΔTm in experiment [4] and in experiment [5] were 30 °C and 3.6 °C, respectively. For the same molecule, the Ka is on record as 17.61 ± 2.87 x 10^5 M^-1 in experiment [1], 14.89 ± 4.37 x 10^5 M^-1 in experiment [2], 10.45 ± 1.13 x 10^5 M^-1 in experiment [3] (K+ 100 mM) and 6.22 ± 0.34 x 10^5 M^-1 in experiment [3] (Na+ 100 mM).
Turning to `OCC[S-].[Pt+2].[c-]1cc(OCCN2CCCCC2)ccc1-c1cccc(-c2ccccn2)n1`, the Ka in experiment [1] was 15.04 ± 1.18 x 10^5 M^-1; in experiment [2], 16.35 ± 2.30 x 10^5 M^-1; in experiment [3] (K+ 100 mM), 4.85 ± 0.66 x 10^5 M^-1; in experiment [3] (Na+ 100 mM), 4.5 ± 1.54 x 10^5 M^-1.
For `OCC[S-].[Pt+2].[c-]1cc(OCCN2CCOCC2)ccc1-c1cccc(-c2ccccn2)n1`, in that order: 6.09 ± 0.91 x 10^5 M^-1, 4.45 ± 0.58 x 10^5 M^-1, 3.92 ± 0.13 x 10^5 M^-1 and 1.46 ± 0.05 x 10^5 M^-1.
On to `[Cl-].[Pt+2].[c-]1cc(OCCN2CCCCC2)ccc1-c1cccc(-c2ccccn2)n1`, for which the ΔTm in experiment [4] is 28.3 °C; in experiment [5] it was 2.8 °C. For the same molecule, the Ka in experiment [1] (1 μM complex) was 21.65 ± 0.64 x 10^5 M^-1; in experiment [2] (1 μM complex), 19.18 ± 3.60 x 10^5 M^-1; in experiment [3] (K+ 100 mM, 1 μM complex) it was 11.77 ± 1.69 x 10^5 M^-1; in experiment [3] (Na+ 100 mM, 1 μM complex), 5.06 ± 0.59 x 10^5 M^-1.
For `[Cl-].[Pt+2].[c-]1cc(OCCN2CCOCC2)ccc1-c1cccc(-c2ccccn2)n1`, the Ka in experiment [1] is on record as 13.68 ± 1.56 x 10^5 M^-1; in experiment [2] it was 3.55 ± 0.92 x 10^5 M^-1; in experiment [3] (K+ 100 mM), 2.95 ± 0.34 x 10^5 M^-1; in experiment [3] (Na+ 100 mM) it was 1.47 ± 0.08 x 10^5 M^-1.
